Data taken from publication PMC10041534, “Development of Fluorescent 4-[4-(3H-Spiro[isobenzofuran-1,4′-piperidin]-1′-yl)butyl]indolyl Derivatives as High-Affinity Probes to Enable the Study of σ Receptors via Fluorescence-Based Techniques” (Journal of Medicinal Chemistry, 2023).

How the values were obtained:
σ1 receptor [1] = molecular target: T1, σ1 receptor (Homo sapiens, UniProt Q99720); assay: Flow cytometry studies in MCF7σ1 cells; format: cell-based
T1 construct: expressed in transfected cells

σ2 receptor [2] = molecular target: T2, σ2 receptor (Homo sapiens, UniProt Q5BJF2); assay: Spinning disk confocal microscopy on living MCF7 cells; format: cell-based; set-up: This cell line was selected on the basis of its high σ2 receptor expression levels; endogenous in cells; host or cells: MCF7 (and MCF7KO, partial TMEM97 knockdown by shRNA); settings: for subcellular localization in living MCF7 cells: 0.05 μM, 30 min; for mitochondrial localization upon co-treatment with nonfluorescent DTG: 20 μM DTG
Method: MCF7 cells (2.4 × 10^4 cells/well) were seeded on IBIDI slides (coated with polymers, Science Services) and incubated at 37 °C with 5% CO2 for 48 h. Afterward, ProlongLife (Invitrogen, catalog no. P36974) was added in a 1:100 dilution to the cells and incubated for 1 h. Subsequently, the medium was removed, and the cells were stained with 250 nM MitoTracker-Bodipy FL (Invitrogen, catalog no. P36974) in phenol red-free medium for 30 min at 37 °C with 5% CO2. […] In addition, Hoechst 33342 (0.05 μM) was added 15 min prior to measurement to counterstain for nuclei. Finally, z-stacks of the living cells were performed using an Olympus IXplore SpinSR spinning disk confocal microscope. In total, three pictures per spot were obtained. The Cy-5 intensities of the ligands based on the localization of the GFP- signal of the mitochondria were calculated by the commercially available software cellSens from Olympus. Statistical analysis was performed using GraphPad Prism (version 8).

[3] = Fluorescence spectroscopy and quantum yield measurements; format: physicochemical; settings: CHCl3
MCF7 cells [4] = assay: Live cell imaging in MCF7 cells; format: cell-based, human; settings: live cell videos
σ2 receptor [5] = molecular target: T2, σ2 receptor; assay: Flow cytometry studies in MCF7 and MCF7KO cells; format: cell-based; set-up: This cell line was selected on the basis of its high σ2 receptor expression levels; endogenous in cells; host or cells: MCF7 (and MCF7KO, partial TMEM97 knockdown by shRNA); settings: for accumulation (mean fluorescence intensity) in MCF7 and MCF7KO cells: 10 nM-10 μM, 45 min, σ1 masked with 10 μM (+)-pentazocine; for signal in MCF7KO cells compared with MCF7 cells: flow cytometry, σ2 receptor partially silenced
Method: Subsequently, the cells were harvested by trypsinization and resuspended in 250 μL of FACS-PBS. The fluorescence intensity was measured by flow cytometry using a BD LSRFortessaTM X-20 cell analyzer (Becton Dickinson, Palo Alto, CA). For this, in total 20000 cells per sample were evaluated. The results were analyzed and quantified using BD FACSDivaTM software.

MCF7 cells [6] = assay: Trypan blue assay; format: cell-based, human; settings: conditions of confocal microscopy, data not shown
σ1 receptor [7] = molecular target: T3, σ1 receptor (Cavia porcellus, UniProt Q60492); assay: σ1 receptor radioligand binding assay with (+)-[3H]pentazocine, guinea pig brain membranes; settings: mean of at least two experiments in duplicate, read-out: Ki ± SEM σ1
T3 construct: from tissue; host or cells: guinea pig brain without cerebellum (male Dunkin guinea pigs, Envigo)
Method: (§1) All of the procedures for the binding assays were previously described. σ1 and σ2 receptor binding assays were carried out according to the literature.[25] […] Incubations were stopped by addition of 1 mL of ice-cold buffer [50 mM TRIS (pH 8.0)], and then the suspension was filtered through GF/B presoaked in 0.3% polyethylenimine (PEI) for at least 60 min prior to use. The filters were washed twice with 1 mL of ice-cold buffer. […] Incubations were stopped by addition of 1 mL of ice-cold buffer [50 mM TRIS (pH 8.0)], and then the suspension was filtered through GF/B presoaked in 0.5% polyethylenimine (PEI) for at least 60 min prior to use. The filters were washed twice with 1 mL of ice-cold buffer. […] Scatchard parameters (Kd and Bmax) and apparent inhibition constants (Ki) were determined by nonlinear curve fitting using GraphPad Prism (version 5.0).[64]

σ2 receptor [8] = molecular target: T2, σ2 receptor; assay: Flow cytometry saturation binding assay in MCF7 cells; settings: σ1 masked by (+)-pentazocine
Method: Similarly, 2 × 10^5 MCF7 cells/well were seeded in a 12-well plate and allowed to recover for 24 h at 37 °C.
At the end of the incubation periods, cells were washed twice with PBS, detached with 200 mL of Cell Dissociation Solution (Sigma Chemical Co.) for 10 min at 37 °C, centrifuged at 13000g for 5 min, and resuspended in 500 mL of PBS. The fluorescence was recorded using a Bio-Guava easyCyte 5 Flow Cytometry System (Millipore, Billerica, MA), with a 530 nm band-pass filter. For each analysis, 50000 events were collected and analyzed with the InCyte software (Millipore).

σ2 receptor [9] = molecular target: T4, σ2 receptor (Rattus norvegicus, UniProt Q5U3Y7); assay: σ2 receptor radioligand binding assay with [3H]DTG, rat liver membranes; settings: for Ki: [3H]DTG with 1 μM (+)-pentazocine, rat liver membranes, mean of at least two experiments in duplicate, read-out: Ki ± SEM σ2
T4 construct: from tissue; host or cells: rat liver (Wistar Hannover rats, Envigo)
T4 sequence (Q5U3Y7 1-176): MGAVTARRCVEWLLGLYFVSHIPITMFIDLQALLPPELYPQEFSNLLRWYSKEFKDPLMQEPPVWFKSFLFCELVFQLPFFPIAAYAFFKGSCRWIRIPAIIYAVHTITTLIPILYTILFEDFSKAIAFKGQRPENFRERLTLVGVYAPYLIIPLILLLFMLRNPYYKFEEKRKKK
Method: as §1

σ2 receptor [10] = molecular target: T2, σ2 receptor; assay: Confocal microscopy, co-localization with σ2 receptor (TMEM97 ab) in fixed MCF7 cells; format: cell-based; set-up: This cell line was selected on the basis of its high σ2 receptor expression levels; endogenous in cells; host or cells: MCF7 (and MCF7KO, partial TMEM97 knockdown by shRNA); settings: 5 μM, 1 h
Method: Subsequently, the cells were treated with the indicated concentrations of 19 or 29 for 1 h at 37 °C. Then, the cells were washed once with PBS, harvested by trypsinization, and resuspended in 1 mL of PBS. Then, the cell preparation for confocal microscopy by using Cytospin was carried out as described by Koh et al.,[75] followed by cell fixation with 4% paraformaldehyde at room temperature for 30 min. For the staining of σ2 receptor expression, cells were permeabilized and blocked with 0.5% Triton X-100 and 1% BSA, respectively, in PBS for 30 min at room temperature followed by incubation of the primary TMEM97 antibody (diluted 1:200 in 1% BSA/0.3% Triton-PBS, Novusbio, catalog no. NBP1-30436) overnight at 4 °C in a wet chamber. The next day, the cells were washed three times with PBS and incubated with a 1:500 dilution of a secondary anti-rabbit AlexaFluor488-labeled antibody (Invitrogen, catalog no. A-11034) for 1 h at room temperature in a wet chamber. After being washed twice with PBS, the cells were incubated with a solution containing DAPI (2.5 μg/mL, D9542) for 15 min at room temperature, followed by three washes with PBS as well as ddH2O and embedding with Vectashield (Vectashield Antifade Mounting Media, Vector Laboratories, caalog no. H-1000-10). […]

[11] = RP-HPLC degradation study in PBS buffer; format: physicochemical; settings: 37 °C, RP-HPLC over 24 h
Method: page 12: Figure S10. RP-HPLC degradation study in buffer of compounds 19 (A) and 29 (B). Compounds were dissolved in a solution of PBS with 5% of DMSO. Then the solution was divided in 4 vials, one was used to study t0 and the other three were incubated at 37 °C for 2h, 6h and 24 h, respectively. […]

[12] = DTG (20 μM) as non-fluorescent σ2 reference ligand
[13] = compound 2 (10 μM) as non-fluorescent σ2 reference ligand

T2 sequence (Q5BJF2 whole entry): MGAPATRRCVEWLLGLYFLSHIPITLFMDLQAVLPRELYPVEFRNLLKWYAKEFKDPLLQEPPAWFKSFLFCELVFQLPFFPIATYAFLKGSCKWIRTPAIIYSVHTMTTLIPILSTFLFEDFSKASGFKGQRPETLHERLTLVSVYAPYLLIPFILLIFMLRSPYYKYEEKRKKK
T1 sequence (Q99720 whole entry, species assumed): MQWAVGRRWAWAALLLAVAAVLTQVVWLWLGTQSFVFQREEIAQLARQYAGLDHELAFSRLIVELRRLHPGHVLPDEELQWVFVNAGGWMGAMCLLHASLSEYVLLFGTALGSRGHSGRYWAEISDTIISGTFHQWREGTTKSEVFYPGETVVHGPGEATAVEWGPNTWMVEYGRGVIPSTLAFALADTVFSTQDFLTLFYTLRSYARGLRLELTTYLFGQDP
T3 sequence (Q60492 whole entry): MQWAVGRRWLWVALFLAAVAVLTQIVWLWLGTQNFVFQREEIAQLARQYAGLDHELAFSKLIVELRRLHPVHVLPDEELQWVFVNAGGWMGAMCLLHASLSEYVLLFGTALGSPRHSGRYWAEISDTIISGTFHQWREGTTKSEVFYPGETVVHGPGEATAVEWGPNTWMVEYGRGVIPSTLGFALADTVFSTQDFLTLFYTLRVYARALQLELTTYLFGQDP

C[N+]1=C(/C=C/C=C/C=C2\N(CCCCCC(=O)NCCCCCCn3cc(CCCCN4CCC5(CC4)OCc4ccccc45)c4ccccc43)c3ccccc3C2(C)C)C(C)(C)c2ccccc21.[I-] [Compound 19, 2-{(1E,3E)-5-[(E)-1-{6-[(6-{3-[4-(3H-Spiro[isobenzofuran-1,4′-piperidin]-1′-yl)butyl]-1H-indol-1-yl}hexyl)amino]-6-oxohexyl}-3,3-dimethylindolin-2-ylidene]penta-1,3-dien-1-yl}-1,3,3-trimethyl-3H-indol-1-ium]
uptake in MCF7σ1 cells upon administration of (+)-pentazocine (σ1 receptor [1]; σ2 masked with 2 (10 μM), (+)-pentazocine 10 μM): abated
fluorescent signal in MCF7σ1 cells (σ1 receptor [1]; σ2 receptor masked with 10 μM compound 2): dose-dependent increase
subcellular localization in living MCF7 cells (σ2 receptor [2]): mitochondrial localization
mitochondrial localization upon co-treatment with nonfluorescent DTG (σ2 receptor [2]): significantly reduced
quantum yield [3]: 52.86%
λem [3]: 678 nm
λex [3]: 657 nm
entry into living MCF7 cells (MCF7 cells [4]): rapid entry
accumulation (mean fluorescence intensity) in MCF7 and MCF7KO cells (σ2 receptor [5]): dose-dependent manner
signal in MCF7KO cells compared with MCF7 cells (σ2 receptor [5]): visibly weaker
cytotoxicity (MCF7 cells [6]): neither 19 nor 29 was cytotoxic
Ki (σ1 receptor [7]): 51.3 ± 3.2 nM
Kd (σ2 receptor [8]; [12]): 13.6 nM
Kd (σ2 receptor [8]; [13]): 19.3 nM
Ki (σ2 receptor [9]): 30.2 ± 3.5 nM
subcellular localization versus σ2 receptor distribution (TMEM97ab) (σ2 receptor [10]): overlapped with the σ2 receptor distribution
stability [11]: stability of the two compounds was demonstrated

C[N+]1=C(/C=C/C=C/C=C2/N(CCCCCC(=O)Nc3ccc4ccn(CCCCN5CCC6(CC5)OCc5ccccc56)c4c3)c3ccccc3C2(C)C)C(C)(C)c2ccccc21.[I-] [Compound 29, 2-[(1E,3E)-5-{(Z)-1-[6-({1-[4-(3H-Spiro[isobenzofuran-1,4′-piperidin]-1′-yl)butyl]-1H-indol-6-yl}amino)-6-oxohexyl]-3,3-dimethylindolin-2-ylidene}penta-1,3-dien-1-yl]-1,3,3-trimethyl-3H-indol-1-ium]
subcellular localization in living MCF7 cells (σ2 receptor [2]): mitochondrial localization
mitochondrial localization upon co-treatment with nonfluorescent DTG (σ2 receptor [2]): significantly reduced
quantum yield [3]: 47.83%
λem [3]: 678 nm
λex [3]: 657 nm
entry into living MCF7 cells (MCF7 cells [4]): rapid entry
accumulation (mean fluorescence intensity) in MCF7 and MCF7KO cells (σ2 receptor [5]): dose-dependent manner
signal in MCF7KO cells compared with MCF7 cells (σ2 receptor [5]): visibly weaker
cytotoxicity (MCF7 cells [6]): neither 19 nor 29 was cytotoxic
Ki (σ1 receptor [7]): 448 ± 80 nM
Kd (σ2 receptor [8]; [12]): 18.7 nM
Kd (σ2 receptor [8]; [13]): 13.8 nM
Ki (σ2 receptor [9]): 51.1 ± 5.1 nM
σ2 selectivity over σ1 (σ2 receptor [9]; from Ki values at σ1 and σ2): ~10 fold
subcellular localization versus σ2 receptor distribution (TMEM97ab) (σ2 receptor [10]): overlapped with the σ2 receptor distribution
stability [11]: stability of the two compounds was demonstrated
